According to US9937151B2, “Carbapenem antibacterials with gram-negative activity” (priority 2010, dated 2018):
Values after ≈ are worked out from the molar mass of the structure shown.

System: G(−) bacterial strains
Experiment: Dilution antimicrobial susceptibility tests (MIC, NCCLS agar dilution / broth dilution)
Format: cell-based, Gram-negative organisms
Conditions: unit assumed
Method in brief: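 Agar dilution on Mueller-Hinton agar at 10^4 CFU/spot and broth dilution at 5×10^5 CFU/well, per NCCLS M7-A5. Streptococci tested on Mueller-Hinton agar with 5% sheep blood. MIC taken as minimum inhibitory concentration; ATCC control strains run alongside.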

[1] = strain #1 Acinetobacter calcoaceticus
[2] = strain #2 Acinetobacter baumannii, Cf-R, Ci-R
[3] = strain #3 Acinetobacter baumannii, Cf-R, Ci-R, Mp-I
[4] = strain #4 Acinetobacter baumannii, Cf-R, Imp-I, CBPase
[5] = strain #7 Enterobacter aerogenes
[6] = strain #8 Enterobacter cloacae, Cf-R, B+
[7] = strain #9 Enterobacter cloacae, Cf-R
[8] = strain #10 Escherichia coli, Ci-R
[9] = strain #11 Escherichia coli, Ci-R, AmpC
[10] = strain #15 Klebsiella pneumoniae
[11] = strain #16 Moraxella catarrhalis
[12] = strain #21 Providencia rettgeri
[13] = strain #22 Salmonella typhimurium
[14] = strain #25 Shigella dysenteriae
[15] = strain #28 Stenotrophomonas maltophilia
[16] = strain #29 Pseudomonas aeruginosa
[17] = strain #30 Pseudomonas aeruginosa
[18] = strain #31 Pseudomonas aeruginosa, Ofx-R
[19] = strain #32 Pseudomonas aeruginosa, Cf-R
[20] = strain #33 Pseudomonas aeruginosa, Ci-R
[21] = strain #34 Pseudomonas aeruginosa, Gen-R
[22] = strain #35 Pseudomonas aeruginosa, Ip-R
[23] = strain #36 Pseudomonas aeruginosa, Cf-R, Ci-R, Mp-R

Row | Structure (SMILES) | MIC [1] [µg/mL] | MIC [2] [µg/mL] | MIC [3] [µg/mL] | MIC [4] [µg/mL] | MIC (strain #5 Citrobacter diversus) [µg/mL] | MIC (strain #6 Citrobacter freundii) [µg/mL] | MIC [5] [µg/mL] | MIC [6] [µg/mL] | MIC [7] [µg/mL] | MIC [8] [µg/mL] | MIC [9] [µg/mL] | MIC (strain #12 Escherichia coli) [µg/mL] | MIC (strain #13 Escherichia coli) [µg/mL] | MIC (strain #14 Klebsiella oxytoca) [µg/mL] | MIC [10] [µg/mL] | MIC [11] [µg/mL] | MIC (strain #17 Morganella Morganii) [µg/mL] | MIC (strain #18 Morganella Morganii) [µg/mL] | MIC (strain #19 Proteus vulgaris) [µg/mL] | MIC (strain #20 Proteus mirabilis) [µg/mL] | other results
1 | CC(=O)NC(=N)N[C@H]1CCN(CC2=C(C(=O)O)N3C(=O)C([C@@H](C)O)C3[C@H]2C)C1 (stereo partly drawn) [Compound 111] | 1 (≈ 2.54 µM) | 4 (≈ 10.2 µM) | 4 (≈ 10.2 µM) | 4 (≈ 10.2 µM) | 0.5 (≈ 1.27 µM) | 0.5 (≈ 1.27 µM) | 2 (≈ 5.08 µM) | 1 (≈ 2.54 µM) | 1 (≈ 2.54 µM) | 0.5 (≈ 1.27 µM) | 0.5 (≈ 1.27 µM) | 0.5 (≈ 1.27 µM) | 0.5 (≈ 1.27 µM) | 1 (≈ 2.54 µM) | 1 (≈ 2.54 µM) | ≤ 0.008 | 4 (≈ 10.2 µM) | 2 (≈ 5.08 µM) | 2 (≈ 5.08 µM) | 0.5 (≈ 1.27 µM) | MIC [12]: 2 µg/mL (≈ 5.08 µM); MIC [13]: 0.5 µg/mL (≈ 1.27 µM); MIC (strain #23 Serratia marcescens): 1 µg/mL (≈ 2.54 µM); MIC (strain #24 Serratia marcescens): 2 µg/mL (≈ 5.08 µM); MIC [14]: 0.5 µg/mL (≈ 1.27 µM); MIC (strain #26 Shigella sonnei): 0.5 µg/mL (≈ 1.27 µM); MIC (strain #27 Shigella flexneri): 0.5 µg/mL (≈ 1.27 µM); MIC [15]: 0.5 µg/mL (≈ 1.27 µM); MIC [16]: 4 µg/mL (≈ 10.2 µM); MIC [17]: 4 µg/mL (≈ 10.2 µM); MIC [18]: 1 µg/mL (≈ 2.54 µM); MIC [19]: 4 µg/mL (≈ 10.2 µM); MIC [20]: 8 µg/mL (≈ 20.3 µM); MIC [21]: 4 µg/mL (≈ 10.2 µM); MIC [22]: 8 µg/mL (≈ 20.3 µM); MIC [23]: > 32 µg/mL
2 | C[C@@H](O)C1C(=O)N2C(C(=O)O)=C(CN3CC[C@@H](C(N)=O)C3)[C@H](C)C12 (stereo partly drawn) [Compound 115] | 0.5 (≈ 1.48 µM) | 1 (≈ 2.96 µM) | 2 (≈ 5.93 µM) | 1 (≈ 2.96 µM) | 0.25 (≈ 0.741 µM) | 0.25 (≈ 0.741 µM) | 1 (≈ 2.96 µM) | 0.13 (≈ 0.385 µM) | 0.25 (≈ 0.741 µM) | 0.25 (≈ 0.741 µM) | 0.25 (≈ 0.741 µM) | 0.25 (≈ 0.741 µM) | 0.25 (≈ 0.741 µM) | 0.25 (≈ 0.741 µM) | 0.5 (≈ 1.48 µM) | ≤ 0.008 | 2 (≈ 5.93 µM) | 2 (≈ 5.93 µM) | 1 (≈ 2.96 µM) | 0.25 (≈ 0.741 µM) | MIC [12]: 1 µg/mL (≈ 2.96 µM); MIC [13]: 0.25 µg/mL (≈ 0.741 µM); MIC (strain #23 Serratia marcescens): 0.5 µg/mL (≈ 1.48 µM); MIC (strain #24 Serratia marcescens): 1 µg/mL (≈ 2.96 µM); MIC [14]: 0.25 µg/mL (≈ 0.741 µM); MIC (strain #26 Shigella sonnei): 0.25 µg/mL (≈ 0.741 µM); MIC (strain #27 Shigella flexneri): 0.25 µg/mL (≈ 0.741 µM); MIC [15]: 0.25 µg/mL (≈ 0.741 µM); MIC [16]: 4 µg/mL (≈ 11.9 µM); MIC [17]: 4 µg/mL (≈ 11.9 µM); MIC [18]: 1 µg/mL (≈ 2.96 µM); MIC [19]: 4 µg/mL (≈ 11.9 µM); MIC [20]: 8 µg/mL (≈ 23.7 µM); MIC [21]: 8 µg/mL (≈ 23.7 µM); MIC [22]: 8 µg/mL (≈ 23.7 µM); MIC [23]: > 32 µg/mL
